For data set [1] the following is noted: amide bond, DCM, 25.0 °C.
The target of a further data set is human PCSK9 (Homo sapiens, UniProt Q8NBP7). The experiment in a line: PCSK9 ligand binding assay (TR-FRET): interference with binding of human PCSK9 to human LDLR. The note with it: for IC50: Human PCSK9 Alexa Fluor 647 / Human LDLR extracellular domain-Europium Kryptate; for Max % inhibition: efficacy (Amax), 100% = 1 uM unlabeled human PCSK9, 0% = DMSO. The gist of the method: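 Read-out was TR-FRET ratio (665 nm over 615 nm, 330 nm excitation) between Alexa Fluor 647-human PCSK9 (16 nM added) and Europium Kryptate-human LDLR ectodomain (4 nM added). Compound and PCSK9 were mixed 30 min before LDLR, then incubated 2 h. Inhibition was normalised to DMSO and unlabelled-PCSK9 controls, giving IC50 and Amax.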
On the technique in general: TR-FRET usually uses a lanthanide donor and a delayed reading to cut background.

Where two headings read alike, the source gives them in different places.

human PCSK9, sequence (Q8NBP7 153-692): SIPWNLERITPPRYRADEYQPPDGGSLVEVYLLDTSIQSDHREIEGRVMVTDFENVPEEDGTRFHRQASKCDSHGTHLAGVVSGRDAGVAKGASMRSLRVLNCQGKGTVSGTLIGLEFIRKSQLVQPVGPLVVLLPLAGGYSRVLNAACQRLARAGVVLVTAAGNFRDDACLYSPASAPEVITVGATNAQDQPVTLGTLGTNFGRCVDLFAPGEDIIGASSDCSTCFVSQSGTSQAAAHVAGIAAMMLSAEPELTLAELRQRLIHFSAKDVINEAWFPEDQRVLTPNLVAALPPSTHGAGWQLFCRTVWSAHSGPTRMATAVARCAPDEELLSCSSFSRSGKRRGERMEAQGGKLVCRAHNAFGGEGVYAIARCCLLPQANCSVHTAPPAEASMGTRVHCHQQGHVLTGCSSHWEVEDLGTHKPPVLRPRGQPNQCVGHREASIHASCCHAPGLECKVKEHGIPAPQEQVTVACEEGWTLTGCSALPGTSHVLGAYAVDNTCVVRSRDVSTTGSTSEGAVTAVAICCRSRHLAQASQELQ
human PCSK9, sequence (Q8NBP7 31-152 partner limits assumed): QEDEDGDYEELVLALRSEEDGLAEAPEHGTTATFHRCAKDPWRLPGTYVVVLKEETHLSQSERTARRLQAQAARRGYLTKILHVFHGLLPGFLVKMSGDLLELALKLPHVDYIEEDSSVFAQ

Turning to `CC(C)[C@H]1CC(=O)N(Cc2ccc(Cl)cc2Oc2ccc(-c3cnc(CN(C)C)n3C)cc2)[C@@H](C)C(=O)N[C@@H](CO)C(=O)N[C@@]2(Cc3ccc(Cl)cc3)CCCN(C2)C1=O.Cl` [Compound 133, (3R,7S,10S,13R)-6-(4-chloro-2-(4-(2-((dimethylamino)methyl)-1-methyl-1H-imidazol-5-yl)phenoxy)benzyl)-13-(4-chlorobenzyl)-10-(hydroxymethyl)-3-isopropyl-7-methyl-1,6,9,12-tetraazabicyclo[11.3.1]heptadecane-2,5,8,11-tetraone hydrochloride], in data set [1] (from CC(C)[C@@H](CC(=O)N(Cc1ccc(Cl)cc1Oc1ccc(-c2cnc(CN(C)C)n2C)cc1)[C@@H](C)C(=O)N[C@@H](CO)C(=O)N[C@@]1(Cc2ccc(Cl)cc2)CCCNC1)C(=O)O, HATU, 1.0 mM, 17.0 h), the ring closure, yield of all isomers amounted to 59%. On human PCSK9, the IC50 amounted to 1.49 µM and the Max % inhibition is 76.9%.

In turn, `COC[C@@H]1NC(=O)[C@H](C)N(Cc2ccc(Cl)cc2Oc2ccc(-c3cnc(CN(C)C)n3C)cc2)C(=O)O[C@@H](Cc2ccccc2)C(=O)N2CCC[C@@](Cc3ccc(Cl)cc3)(C2)NC1=O.Cl` [Compound 156, (3S,7S,10S,13R)-3-benzyl-6-(4-chloro-2-(4-(2-((dimethylamino)methyl)-1-methyl-1H-imidazol-5-yl)-phenoxy)benzyl)-13-(4-chlorobenzyl)-10-(methoxymethyl)-7-methyl-4-oxa-1,6,9,12-tetraazabicyclo[11.3.1]heptadecane-2,5,8,11-tetraone hydrochloride] came in with a ring closure, yield of all isomers in data set [1] (from COC[C@H](NC(=O)[C@H](C)N(Cc1ccc(Cl)cc1Oc1ccc(-c2cnc(CN(C)C)n2C)cc1)C(=O)O[C@@H](Cc1ccccc1)C(=O)O)C(=O)N[C@@]1(Cc2ccc(Cl)cc2)CCCNC1, HATU/HOAt, 2,6-lutidine, 0.95 mM, 1.5 h) of 38%. Besides, at human PCSK9, the IC50 is 0.00921 µM and the Max % inhibition came to 100.8%.

A word on the IC50: it is the concentration that inhibits the measured activity by half. Lower therefore signals greater potency.

Source of the values: patent publication US11813306B2, “Cyclic tetramer compounds as proprotein convertase subtilisin/kexin type 9 (PCSK9) inhibitors for the treatment of metabolic disorders” (NOVARTIS AG, priority 2018, dated 2023).
